Assay results reported in US10758534B2 (Vertex Pharmaceuticals Incorporated, priority 2014, dated 2020).

Target: T1, F508del (Homo sapiens, UniProt P13569, DEL508-508)
T1 construct: expressed in transfected cells
Experiment: Protocol 2: FRET membrane potential optical assay (VIPR), identification of correction compounds
Format: cell-based
Settings: F508del CFTR modulator activity; compounds of Table 1; read-out: EC30
Summary of the method: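 Single-addition HTS format: F508del-expressing NIH3T3 cells pre-incubated 16 hrs at 37° C. ± compound, with 27° C. culture as positive control. Channel activation by forskolin 10 μM and genistein 20 μM upon switch to gluconate bath, pH 7.4; read-out is FRET-based depolarization signal.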

T1 sequence (P13569 with tags, fused parts or gaps DEL508-508): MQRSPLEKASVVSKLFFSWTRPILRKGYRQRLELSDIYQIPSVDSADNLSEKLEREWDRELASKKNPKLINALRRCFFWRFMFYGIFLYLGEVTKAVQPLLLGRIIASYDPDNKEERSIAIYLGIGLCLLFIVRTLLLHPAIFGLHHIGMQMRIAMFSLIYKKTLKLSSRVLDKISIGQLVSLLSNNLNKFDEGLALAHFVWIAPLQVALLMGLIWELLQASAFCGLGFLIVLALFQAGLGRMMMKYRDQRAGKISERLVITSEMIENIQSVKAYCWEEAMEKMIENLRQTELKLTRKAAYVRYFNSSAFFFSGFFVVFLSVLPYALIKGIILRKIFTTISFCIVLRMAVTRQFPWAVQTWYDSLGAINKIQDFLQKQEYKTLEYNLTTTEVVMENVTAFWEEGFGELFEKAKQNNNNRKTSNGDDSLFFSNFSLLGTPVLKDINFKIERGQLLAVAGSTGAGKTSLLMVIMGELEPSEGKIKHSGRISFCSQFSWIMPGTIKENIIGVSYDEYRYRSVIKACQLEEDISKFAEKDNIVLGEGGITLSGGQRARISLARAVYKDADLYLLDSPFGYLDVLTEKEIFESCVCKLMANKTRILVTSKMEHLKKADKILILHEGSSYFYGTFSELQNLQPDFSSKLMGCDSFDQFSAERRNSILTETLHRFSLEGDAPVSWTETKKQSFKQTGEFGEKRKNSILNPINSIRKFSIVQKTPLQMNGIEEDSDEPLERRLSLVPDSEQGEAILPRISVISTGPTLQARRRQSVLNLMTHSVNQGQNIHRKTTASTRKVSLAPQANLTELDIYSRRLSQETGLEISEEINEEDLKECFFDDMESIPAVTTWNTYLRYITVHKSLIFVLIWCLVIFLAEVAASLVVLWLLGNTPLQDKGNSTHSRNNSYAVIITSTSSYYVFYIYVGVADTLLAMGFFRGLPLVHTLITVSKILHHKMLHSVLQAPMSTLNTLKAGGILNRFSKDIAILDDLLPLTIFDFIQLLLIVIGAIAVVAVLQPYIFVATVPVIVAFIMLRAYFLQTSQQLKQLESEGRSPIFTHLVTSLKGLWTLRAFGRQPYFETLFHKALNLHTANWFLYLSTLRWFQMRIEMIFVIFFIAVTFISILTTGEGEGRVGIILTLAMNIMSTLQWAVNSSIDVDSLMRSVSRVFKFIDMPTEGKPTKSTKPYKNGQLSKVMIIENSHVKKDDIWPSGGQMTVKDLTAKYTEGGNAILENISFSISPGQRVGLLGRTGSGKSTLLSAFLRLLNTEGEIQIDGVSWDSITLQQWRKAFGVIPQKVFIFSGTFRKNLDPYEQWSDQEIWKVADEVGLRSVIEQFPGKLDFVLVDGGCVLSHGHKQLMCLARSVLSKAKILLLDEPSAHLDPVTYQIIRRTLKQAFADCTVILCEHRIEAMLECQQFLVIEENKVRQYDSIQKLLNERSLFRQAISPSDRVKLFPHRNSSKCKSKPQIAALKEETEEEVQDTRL

EC30 [µM] | SMILES
< 3 | Cc1cc(-c2ccc(C(=O)NS(=O)(=O)c3ccc[nH]c3=O)c(N3C[C@@H](C)CC3(C)C)n2)ccc1F [Compound 2456, 6-(4-fluoro-3-methyl-phenyl)-N-[(2-oxo-1H-pyridin-3-yl)sulfonyl]-2-[(4S)-2,2,4-trimethylpyrrolidin-1-yl]pyridine-3-carboxamide]
< 3 | COc1c(F)cc(-c2ccc(C(=O)NS(=O)(=O)c3cccnc3N)c(N3C[C@@H](C)CC3(C)C)n2)cc1F [Compound 2457, N-[(2-amino-3-pyridyl)sulfonyl]-6-(3,5-difluoro-4-methoxy-phenyl)-2-[(4S)-2,2,4-trimethylpyrrolidin-1-yl]pyridine-3-carboxamide]
< 3 | CCOc1cc(-c2ccc(C(=O)NS(=O)(=O)c3ccc[nH]c3=O)c(N3C[C@@H](C)CC3(C)C)n2)ccc1F [Compound 2459, 6-(3-ethoxy-4-fluoro-phenyl)-N-[(2-oxo-1H-pyridin-3-yl)sulfonyl]-2-[(4S)-2,2,4-trimethylpyrrolidin-1-yl]pyridine-3-carboxamide]
< 3 | Cc1ccc(Oc2cccc(S(=O)(=O)NC(=O)c3cccnc3N3CC(C)CC3(C)C)n2)cc1 (stereo not drawn) [Compound 2460, N—[[6-(4-methylphenoxy)-2-pyridyl]sulfonyl]-2-(2,2,4-trimethylpyrrolidin-1-yl)pyridine-3-carboxamide]
< 3 | CC1CN(c2ncccc2C(=O)NS(=O)(=O)c2cccc(Oc3cccc(Cl)c3)n2)C(C)(C)C1 (stereo not drawn) [Compound 2461, N—[[6-(3-chlorophenoxy)-2-pyridyl]sulfonyl]-2-(2,2,4-trimethylpyrrolidin-1-yl)pyridine-3-carboxamide]
< 3 | CC1CN(c2ncccc2C(=O)NS(=O)(=O)c2cccc(OCc3cc(F)cc(F)c3)n2)C(C)(C)C1 (stereo not drawn) [Compound 2462, N—[[6-[(3,5-difluorophenyl)methoxy]-2-pyridyl]sulfonyl]-2-(2,2,4-trimethylpyrrolidin-1-yl)pyridine-3-carboxamide]
< 3 | CC1CN(c2ncc(-c3ccc(C(C)(C)C)cc3)cc2C(=O)NS(=O)(=O)c2cccc(N)n2)C(C)(C)C1 (stereo not drawn) [Compound 2463, N-[(6-amino-2-pyridyl)sulfonyl]-5-(4-tert-butylpenyl)-2-(2,2,4-trimethylpyrrolidin-1-yl)pyridine-3-carboxamide]
3 to 10 | CC1CN(c2ncccc2C(=O)NS(=O)(=O)c2cccc(N3CCOCC3)n2)C(C)(C)C1 (stereo not drawn) [Compound 2464, N-[(6-morpholino-2-pyridyl)sulfonyl]-2-(2,2,4-trimethylpyrrolidin-1-yl)pyridine-3-carboxamide]
< 3 | COc1cccc(CCNc2cccc(S(=O)(=O)NC(=O)c3cccnc3N3CC(C)CC3(C)C)n2)c1 (stereo not drawn) [Compound 2465, N—[[6-[2-(3-methoxyphenyl)ethylamino]-2-pyridyl]sulfonyl]-2-(2,2,4-trimethylpyrrolidin-1-yl)pyridine-3-carboxamide]
< 3 | CC1CN(c2ncccc2C(=O)NS(=O)(=O)c2cccc(Nc3ccc(C(F)(F)F)nc3)n2)C(C)(C)C1 (stereo not drawn) [Compound 2466, N—[[6-[[6-(trifluoromethyl)-3-pyridyl]amino]-2-pyridyl]sulfonyl]-2-(2,2,4-trimethylpyrrolidin-1-yl)pyridine-3-carboxamide]
< 3 | CC(C)Cc1ccc(C(=O)NS(=O)(=O)c2ccc[nH]c2=O)c(N2C[C@@H](C)CC2(C)C)n1 [Compound 2467, 6-isobutyl-N-[(2-oxo-1H-pyridin-3-yl)sulfonyl]-2-[(4S)-2,2,4-trimethylpyrrolidin-1-yl]pyridine-3-carboxamide]
< 3 | C[C@@H]1CN(c2nc(-c3ccc4cc(O)ccc4c3)ccc2C(=O)NS(=O)(=O)c2cccnc2N)C(C)(C)C1 [Compound 2468, N-[(2-amino-3-pyridyl)sulfonyl]-6-(6-hydroxy-2-naphthyl)-2-[(4S)-2,2,4-trimethylpyrrolidin-1-yl]pyridine-3-carboxamide]
3 to 10 | COc1ccc(-c2ccc(C(=O)NS(=O)(=O)c3ccc[nH]c3=O)c(N3C[C@@H](C)CC3(C)C)n2)c(C)c1 [Compound 2469, 6-(4-methoxy-2-methyl-phenyl)-N-[(2-oxo-1H-pyridin-3-yl)sulfonyl]-2-[(4S)-2,2,4-trimethylpyrrolidin-1-yl]pyridine-3-carboxamide]
< 3 | CC1CN(c2ncccc2C(=O)NS(=O)(=O)c2cccc(O[C@H](C)Cc3ccccc3)n2)C(C)(C)C1 (stereo partly drawn) [Compound 2470, N—[[6-[(1R)-1-methyl-2-phenyl-ethoxy]-2-pyridyl]sulfonyl]-2-(2,2,4-trimethylpyrrolidin-1-yl)pyridine-3-carboxamide]
3 to 10 | Cc1ccc2nc(N3C[C@@H](C)CC3(C)C)c(C(=O)NS(=O)(=O)c3ccc[nH]c3=O)cc2c1 [Compound 2471, 6-methyl-N-[(2-oxo-1H-pyridin-3-yl)sulfonyl]-2-[(4S)-2,2,4-trimethylpyrrolidin-1-yl]quinoline-3-carboxamide]
3 to 10 | Cc1cc(-c2ccc(C(=O)NS(=O)(=O)N3CC[C@H](N)C3)c(N3C[C@@H](C)CC3(C)C)n2)ccc1F [Compound 2472, N-[(3S)-3-aminopyrrolidin-1-yl]sulfonyl-6-(4-fluoro-3-methyl-phenyl)-2-[(4S)-2,2,4-trimethylpyrrolidin-1-yl]pyridine-3-carboxamide]
< 3 | COc1ccc(F)c(-c2ccc(C(=O)NS(=O)(=O)c3cccnc3N)c(N3C[C@@H](C)CC3(C)C)n2)c1 [Compound 2474, N-[(2-amino-3-pyridyl)sulfonyl]-6-(2-fluoro-5-methoxy-phenyl)-2-[(4S)-2,2,4-trimethylpyrrolidin-1-yl]pyridine-3-carboxamide]
< 3 | C[C@@H]1CN(c2nc(C(C)(C)C)c(C(O)C(O)C3CCCCC3)cc2C(=O)NS(=O)(=O)c2cccc(N)n2)C(C)(C)C1 (stereo partly drawn) [Compound 2475]
< 3 | CC1CN(c2ncccc2C(=O)NS(=O)(=O)c2cccc(OCc3ccc(C(F)(F)F)nc3)n2)C(C)(C)C1 (stereo not drawn) [Compound 2476, N—[[6-[[6-(trifluoromethyl)-3-pyridyl]methoxy]-2-pyridyl]sulfonyl]-2-(2,2,4-trimethylpyrrolidin-1-yl)pyridine-3-carboxamide]
< 3 | C[C@@H]1CN(c2nc(-c3cccc4[nH]ccc34)ccc2C(=O)NS(=O)(=O)c2cccnc2N)C(C)(C)C1 [Compound 2478, N-[(2-amino-3-pyridyl)sulfonyl]-6-(1H-indol-4-yl)-2-[(4S)-2,2,4-trimethylpyrrolidin-1-yl]pyridine-3-carboxamide]
3 to 10 | C[C@@H]1CN(c2nc(-c3ccccc3O)ccc2C(=O)NS(=O)(=O)c2ccc[nH]c2=O)C(C)(C)C1 [Compound 2480, 6-(2-hydroxyphenyl)-N-[(2-oxo-1H-pyridin-3-yl)sulfonyl]-2-[(4S)-2,2,4-trimethylpyrrolidin-1-yl]pyridine-3-carboxamide]
< 3 | COc1cc(F)ccc1-c1ccc(C(=O)NS(=O)(=O)c2cccnc2N)c(N2C[C@@H](C)CC2(C)C)n1 [Compound 2482, N-[(2-amino-3-pyridyl)sulfonyl]-6-(4-fluoro-2-methoxy-phenyl)-2-[(4S)-2,2,4-trimethylpyrrolidin-1-yl]pyridine-3-carboxamide]
< 3 | CC(C)c1ccc(-c2ccc(C(=O)NS(=O)(=O)c3ccc[nH]c3=O)c(N3C[C@@H](C)CC3(C)C)n2)cc1 [Compound 2483, 6-(4-isopropylphenyl)-N-[(2-oxo-1H-pyridin-3-yl)sulfonyl]-2-[(4S)-2,2,4-trimethylpyrrolidin-1-yl]pyridine-3-carboxamide]
< 3 | CC1CN(c2ncccc2C(=O)NS(=O)(=O)c2cccc(Nc3cccc(C#N)c3)n2)C(C)(C)C1 (stereo not drawn) [Compound 2484, N—[[6-(3-cyanoanilino)-2-pyridyl]sulfonyl]-2-(2,2,4-trimethylpyrrolidin-1-yl)pyridine-3-carboxamide]
< 3 | COc1ccccc1-c1ccc(C(=O)NS(=O)(=O)c2ccc[nH]c2=O)c(N2C[C@@H](C)CC2(C)C)n1 [Compound 2485, 6-(2-methoxyphenyl)-N-[(2-oxo-1H-pyridin-3-yl)sulfonyl]-2-[(4S)-2,2,4-trimethylpyrrolidin-1-yl]pyridine-3-carboxamide]
< 3 | CC1CN(c2ncccc2C(=O)NS(=O)(=O)c2cccc(Oc3ccccc3C(C)C)n2)C(C)(C)C1 (stereo not drawn) [Compound 2486, N—[[6-(2-isopropylphenoxy)-2-pyridyl]sulfonyl]-2-(2,2,4-trimethylpyrrolidin-1-yl)pyridine-3-carboxamide]
< 3 | CCOc1cc(C)cc(-c2ccc(C(=O)NS(=O)(=O)c3cc[nH]n3)c(N3C[C@@H](C)CC3(C)C)n2)n1 [Compound 2487, 6-(6-ethoxy-4-methyl-2-pyridyl)-N-(1H-pyrazol-3-ylsulfonyl)-2-[(4S)-2,2,4-trimethylpyrrolidin-1-yl]pyridine-3-carboxamide]

SMILES | EC30 [µM]
CC[C@H](C)COc1ccn(-c2ccc(C(=O)NS(=O)(=O)c3cccnc3N)c(N3C[C@@H](C)CC3(C)C)n2)n1 [Compound 2458, N-[(2-amino-3-pyridyl)sulfonyl]-6-[3-[(2S)-2-methylbutoxy]pyrazol-1-yl]-2-[(4S)-2,2,4-trimethylpyrrolidin-1-yl]pyridine-3-carboxamide] | < 3
CC(C)COc1cc(F)cc(-c2nc(N3C[C@@H](C)CC3(C)C)c(C(=O)NS(=O)(=O)c3cccc(N)n3)cc2F)c1 [Compound 2473, N-[(6-amino-2-pyridyl)sulfonyl]-5-fluoro-6-(3-fluoro-5-isobutoxy-phenyl)-2-[(4S)-2,2,4-trimethylpyrrolidin-1-yl]pyridine-3-carboxamide] | < 3
CC(C)COc1cc(F)cc(-c2ccc(C(=O)NS(=O)(=O)c3cccc(N)n3)c(N3CCC(C)CC(C)C3)n2)c1 (stereo not drawn) [Compound 2479, N-[(6-amino-2-pyridyl)sulfonyl]-2-(3,5-dimethylazepan-1-yl)-6-(3-fluoro-5-isobutoxy-phenyl)pyridine-3-carboxamide] | < 3
